Eight compounds from patent US7507860B2 (Pfizer Inc., priority 2004, dated 2009) can be followed below.

Substitutions are numbered along the chain they refer to. pIC50: −log10 of the molar value. Where two headings read alike, the source gives them in different places.

The target of one test is T1, androgen receptor (Homo sapiens, UniProt P10275).
T1 sequence (P10275 1-920 Q868H): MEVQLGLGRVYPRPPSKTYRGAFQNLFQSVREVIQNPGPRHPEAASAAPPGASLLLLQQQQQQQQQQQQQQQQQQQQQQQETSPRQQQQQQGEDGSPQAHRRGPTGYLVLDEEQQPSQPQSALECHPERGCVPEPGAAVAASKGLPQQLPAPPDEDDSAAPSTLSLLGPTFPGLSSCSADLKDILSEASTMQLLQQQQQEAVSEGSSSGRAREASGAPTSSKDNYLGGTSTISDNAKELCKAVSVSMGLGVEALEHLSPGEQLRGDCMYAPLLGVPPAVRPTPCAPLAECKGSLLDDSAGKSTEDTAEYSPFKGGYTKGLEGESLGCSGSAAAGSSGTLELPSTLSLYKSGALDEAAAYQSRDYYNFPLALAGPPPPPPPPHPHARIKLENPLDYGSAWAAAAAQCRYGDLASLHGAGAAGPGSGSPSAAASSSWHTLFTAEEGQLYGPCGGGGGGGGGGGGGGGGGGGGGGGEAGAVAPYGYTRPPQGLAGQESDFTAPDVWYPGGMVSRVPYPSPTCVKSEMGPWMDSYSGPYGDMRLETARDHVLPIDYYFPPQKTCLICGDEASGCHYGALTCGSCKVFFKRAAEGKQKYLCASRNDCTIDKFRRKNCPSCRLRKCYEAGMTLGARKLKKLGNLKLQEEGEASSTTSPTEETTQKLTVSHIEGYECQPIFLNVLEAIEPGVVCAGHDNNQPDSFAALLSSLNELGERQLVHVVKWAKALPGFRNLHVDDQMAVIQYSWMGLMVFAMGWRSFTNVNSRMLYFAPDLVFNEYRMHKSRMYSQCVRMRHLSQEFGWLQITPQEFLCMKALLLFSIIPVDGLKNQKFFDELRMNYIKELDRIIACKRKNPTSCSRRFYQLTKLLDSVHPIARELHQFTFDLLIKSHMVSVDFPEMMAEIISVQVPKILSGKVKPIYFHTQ
Kind of test: AR antagonist cell assay (MDA-MB453-MMTV clone 54-19 luciferase reporter, 100 pM DHT). The format is cell-based. Summed up: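 MDA-MB453 cells stably carrying an MMTV-ARE firefly luciferase reporter were plated overnight at 10,000/well in phenol-red-free, charcoal-stripped serum medium. Cells were stimulated with 100 pM DHT (final) for 17 hr at 37 °C, and AR antagonism was read as luciferase signal; values are means of multiple tests.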
For orientation: Reporter assays use an easily measured gene product as a stand-in for the process of interest.

The target in test [1] is T2, human androgen receptor (hAR) (Homo sapiens, UniProt P10275).
T2 construct: made in house; host or cells: baculovirus/Sf9 insect cells (crude extract)
T2 sequence (P10275 1-920): T1 sequence (P10275 1-920 Q868H) with H868Q
Kind of test: Competitive binding analysis on baculovirus/Sf9 generated hAR extracts with 3H-DHT tracer. The following applies: hAR extract, 1 nM 3H-DHT, one hour at 4° C; mean of multiple tests; read-out: AR Binding IC50. In outline:
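Baculovirus/Sf9-expressed hAR extract incubated with hydroxylapatite, 1 nM 3H-DHT and decreasing compound concentrations for 1 h at 4 °C, then washed three times to remove unbound tracer. Bound 3H-DHT compared with no-competitor maximum; affinity given as concentration inhibiting half of maximum binding, mean of multiple tests.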

Setting [2] is: MDA-MB453-MMTV clone 54-19, inhibition of 100 pM DHT induction, 17 hr; mean of multiple tests; read-out: AR Cell IC50.

Consider `CCC[C@H](Oc1ccc(C#N)c(Cl)c1)C(=O)NCCc1ccc(O)cc1` [Example 105, (S)-2-(3-Chloro-4-cyano-phenoxy)-pentanoic acid [2-(4-hydroxy-phenyl)ethyl]amide], for which the pIC50 at androgen receptor (read-out: AR Cell IC50; MDA-MB453-MMTV clone 54-19, inhibition of 100 pM DHT induction, 17 hr; mean of multiple tests) is 7.06; in test [1], 6.62.

Turning to `CCC[C@H](Oc1ccc(C#N)c(Cl)c1)C(=O)NCCc1c[nH]c2ccccc12` [Example 106, (S)-2-(3-Chloro-4-cyano-phenoxy)-pentanoic acid [2-(1H-indol-3-yl)-ethyl]-amide], the pIC50 at androgen receptor (setting [2]) was 8.52; in test [1], 7.33.

In the case of `CCC[C@H](Oc1ccc(C#N)c(C(F)(F)F)c1)C(=O)NCc1cccc(C)c1` [Example 107, (S)-2-(4-Cyano-3-trifluoromethyl-phenoxy)-pentanoic acid-3-methyl-benzylamide], the negative logarithm of the IC50 (pIC50) at androgen receptor (setting [2]) was more than 9.49; in test [1], 7.03.

Regarding `CCC[C@H](Oc1ccc(C#N)c(C(F)(F)F)c1)C(=O)NCCc1c[nH]c2ccccc12` [Example 108, (S)-2-(4-Cyano-3-trifluoromethyl-phenoxy)-pentanoic acid [2-(1H-indol-3-yl)ethyl]-amide], the negative logarithm of the IC50 (pIC50) on androgen receptor (setting [2]) was more than 9.49; in test [1] it was 7.68.

In the case of `CCC[C@H](Oc1ccc(C#N)c(C(F)(F)F)c1)C(=O)NCCc1ccc(O)cc1` [Example 109], the pIC50 is 7.24 at androgen receptor (setting [2]) and 6.60 in test [1].

Take `CC(C)C[C@@H](Oc1ccc(C#N)c(C(F)(F)F)c1)C(=O)NCCc1ccc(O)cc1` [Example 111]: the pIC50 on androgen receptor (setting [2]) is 6.79; in test [1] it was 6.83.

`CCCC(Oc1ccc(C#N)c(C(F)(F)F)c1)C(=O)NC(C)c1ccc(OC)cc1` (stereo not shown) [Example 113, 2-(4-Cyano-3-trifluoromethyl-phenoxy)-pentanoic acid [1-(4-methoxy-phenyl)-ethyl]-amide]: the figures for the pIC50 (at androgen receptor (setting [2]); in test [1]) were 6.17 and 6.18, respectively.

With `CCSCCNC(=O)C(CC(C)C)Oc1ccc(C#N)c(C(F)(F)F)c1` (stereo not shown) [Example 114, 2-(4-Cyano-3-trifluoromethyl-phenoxy)-4-methyl-pentanoic acid (2-ethyl sulfanyl-ethyl)-amide], the negative-log IC50 (pIC50) on androgen receptor (setting [2]) was 6.14; in test [1], 6.99.

As usually defined, the pIC50 is −log10 of the IC50, conventionally taken in molar units.
